Results from ChEMBL document CHEMBL4715809, “Design, synthesis, and biological activity of 4-(imidazo[1,2-b]pyridazin-3-yl)-1H-pyrazol-1-yl-phenylbenzamide derivatives as BCR-ABL kinase inhibitors” (Bioorg Med Chem Lett, 2016).

Columns and labels:
[1] = biological target: Bcr/Abl fusion protein (Homo sapiens, UniProt P00519); assay: (§1) Inhibition of BCR (unknown origin)/recombinant human N-terminal His-tagged ABL1 (27 to end residues) expressed in baculovirus infected Sf9 cells using ABLtide as substrate preincubated for 30 mins followed by substrate addition and measured after 1 hr in presence of ATP by kinase-Glo luminescence assay
Sequence of Bcr/Abl fusion protein (P00519 whole entry, the tested form may be a part): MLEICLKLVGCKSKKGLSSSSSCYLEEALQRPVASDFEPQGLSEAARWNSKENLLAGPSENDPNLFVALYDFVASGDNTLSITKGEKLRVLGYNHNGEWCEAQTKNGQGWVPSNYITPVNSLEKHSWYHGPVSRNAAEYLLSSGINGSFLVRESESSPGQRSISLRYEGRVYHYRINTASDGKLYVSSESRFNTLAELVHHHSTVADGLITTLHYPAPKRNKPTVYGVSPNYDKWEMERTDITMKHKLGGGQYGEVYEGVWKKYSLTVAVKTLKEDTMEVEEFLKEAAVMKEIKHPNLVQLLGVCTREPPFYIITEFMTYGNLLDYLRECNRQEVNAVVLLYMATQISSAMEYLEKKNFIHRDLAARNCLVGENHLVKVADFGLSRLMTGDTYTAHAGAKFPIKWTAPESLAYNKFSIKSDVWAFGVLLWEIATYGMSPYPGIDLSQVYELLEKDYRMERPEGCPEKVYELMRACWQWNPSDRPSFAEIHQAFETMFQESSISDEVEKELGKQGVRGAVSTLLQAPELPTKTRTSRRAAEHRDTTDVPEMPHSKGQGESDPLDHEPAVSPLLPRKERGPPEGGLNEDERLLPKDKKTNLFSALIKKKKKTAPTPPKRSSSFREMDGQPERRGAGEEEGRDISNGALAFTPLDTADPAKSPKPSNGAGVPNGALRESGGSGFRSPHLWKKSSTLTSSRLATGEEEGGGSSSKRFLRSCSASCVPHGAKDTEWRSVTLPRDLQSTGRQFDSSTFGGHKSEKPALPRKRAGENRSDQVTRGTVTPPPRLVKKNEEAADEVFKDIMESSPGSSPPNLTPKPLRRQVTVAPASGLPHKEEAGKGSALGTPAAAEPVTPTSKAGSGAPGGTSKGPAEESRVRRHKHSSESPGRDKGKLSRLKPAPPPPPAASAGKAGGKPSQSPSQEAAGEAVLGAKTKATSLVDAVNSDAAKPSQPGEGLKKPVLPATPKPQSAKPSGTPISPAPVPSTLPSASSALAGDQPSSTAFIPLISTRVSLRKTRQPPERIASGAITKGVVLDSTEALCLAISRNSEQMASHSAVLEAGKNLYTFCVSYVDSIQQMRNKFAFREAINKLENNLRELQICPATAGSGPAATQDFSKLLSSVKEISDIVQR
Sequence of Bcr/Abl fusion protein (P11274 whole entry, further chain, the tested form may be a part): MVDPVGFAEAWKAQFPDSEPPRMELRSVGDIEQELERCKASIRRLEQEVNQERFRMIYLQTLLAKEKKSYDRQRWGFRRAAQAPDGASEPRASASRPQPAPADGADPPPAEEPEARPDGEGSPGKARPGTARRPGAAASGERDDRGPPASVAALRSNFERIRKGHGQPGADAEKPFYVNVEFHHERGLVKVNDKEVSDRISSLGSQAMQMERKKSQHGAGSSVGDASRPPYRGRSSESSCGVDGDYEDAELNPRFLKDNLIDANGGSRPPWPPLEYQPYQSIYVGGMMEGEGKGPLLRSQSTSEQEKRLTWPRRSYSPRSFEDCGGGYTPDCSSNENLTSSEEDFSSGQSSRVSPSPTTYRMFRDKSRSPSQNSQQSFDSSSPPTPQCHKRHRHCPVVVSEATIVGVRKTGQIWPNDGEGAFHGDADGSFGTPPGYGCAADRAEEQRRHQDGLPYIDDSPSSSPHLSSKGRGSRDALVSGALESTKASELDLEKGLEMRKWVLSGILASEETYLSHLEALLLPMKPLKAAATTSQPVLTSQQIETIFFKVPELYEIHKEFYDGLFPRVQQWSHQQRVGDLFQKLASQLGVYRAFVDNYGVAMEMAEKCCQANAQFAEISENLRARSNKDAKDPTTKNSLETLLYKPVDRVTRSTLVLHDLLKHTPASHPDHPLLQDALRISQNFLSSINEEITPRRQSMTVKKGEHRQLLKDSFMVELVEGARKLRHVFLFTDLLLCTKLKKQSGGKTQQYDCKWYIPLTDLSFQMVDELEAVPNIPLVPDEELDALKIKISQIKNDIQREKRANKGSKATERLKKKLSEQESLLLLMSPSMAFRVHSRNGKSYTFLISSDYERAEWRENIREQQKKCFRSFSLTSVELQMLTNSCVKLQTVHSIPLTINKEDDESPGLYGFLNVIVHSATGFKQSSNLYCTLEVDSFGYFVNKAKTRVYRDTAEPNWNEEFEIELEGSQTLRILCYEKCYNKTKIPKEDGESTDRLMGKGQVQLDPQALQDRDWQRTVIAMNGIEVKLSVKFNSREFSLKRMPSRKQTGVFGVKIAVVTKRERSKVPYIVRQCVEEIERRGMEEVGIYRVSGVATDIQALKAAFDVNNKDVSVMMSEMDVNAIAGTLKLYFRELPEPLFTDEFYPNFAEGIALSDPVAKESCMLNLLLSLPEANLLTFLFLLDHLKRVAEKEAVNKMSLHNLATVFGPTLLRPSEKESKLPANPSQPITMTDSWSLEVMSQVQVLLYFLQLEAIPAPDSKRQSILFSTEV

[2] = Cytotoxicity against human 293T cells assessed as reduction in cell viability after 24 hrs by CCK8 assay; type: cell-based; conditions: 293T (HEK-293T) cells
[3] = system: K562; assay: Antiproliferative activity against human K562 cells assessed as reduction in cell viability after 24 hrs by CCK8 assay; type: functional, cell-based; conditions: K562, 24 h
[4] = system: U-937; assay: Antiproliferative activity against human U937 cells assessed as reduction in cell viability after 24 hrs by CCK8 assay; type: functional, cell-based; conditions: U-937, 24 h
[5] = biological target: Bcr/Abl fusion protein (Homo sapiens) (UniProt P00519+P11274); assay: as §1, with “Potency index, ratio of staurosporine IC50 to test compound IC50 for inhibition” for “Inhibition”; conditions: time 90.0 min
Sequence of Bcr/Abl fusion protein (Homo sapiens) (P00519 whole entry, looked up, the tested form may be a part): as the sequence (P00519 whole entry, the tested form may be a part) above
Sequence of Bcr/Abl fusion protein (Homo sapiens) (P11274 whole entry, looked up, the tested form may be a part): as the sequence (P11274 whole entry, further chain, the tested form may be a part) above

SMILES	IC50 [1] [µM]	CC50 at 24 h [2] [µM]	IC50 [3] [µM]	IC50 [4] [µM]	Ratio IC50 [5]
Cc1ccc(NC(=O)c2ccc(CN3CCOCC3)cc2)cc1-n1cc(-c2cnc3cccnn23)cn1	0.109	9.04	8.25	12.4	
Cc1ccc(NC(=O)c2cccc(C(F)(F)F)c2)cc1-n1cc(-c2cnc3cccnn23)cn1	0.0085	40.3	< 0.002	13.7	14.3
Cc1ccc(NC(=O)c2ccc(CN3CCN(C)CC3)cc2)cc1-n1cc(-c2cnc3cccnn23)cn1	0.0261	23.8	< 0.002	10.8	
COc1ccc(C(=O)Nc2ccc(C)c(-n3cc(-c4cnc5ccnn5c4)cn3)c2)cc1	0.767	> 80	19.7	16.3	
Cc1ccc(NC(=O)c2ccc(C(F)(F)F)cc2)cc1-n1cc(-c2cnc3ccnn3c2)cn1	0.804	43.2	6.93	13.1	
Cc1ccc(NC(=O)c2ccc(CN3CCOCC3)cc2)cc1-n1cc(-c2cnc3ccnn3c2)cn1	2.44				
Cc1ccc(NC(=O)c2ccc(CN3CCCN(C)CC3)cc2)cc1-n1cc(-c2cnc3ccnn3c2)cn1	0.621	20.5	5.88	6.83	
Cc1ccc(NC(=O)c2ccc(C(F)(F)F)cc2)cc1-n1cc(-c2cnc3cccnn23)cn1	0.0741	> 80	10.5	> 20	
Cc1ccc(NC(=O)c2ccc(F)cc2)cc1-n1cc(-c2cnc3cccnn23)cn1	0.0809	> 80	12.4	> 20	
CCc1ccc(C(=O)Nc2ccc(C)c(-n3cc(-c4cnc5cccnn45)cn3)c2)cc1	0.0194	> 80	7.54	> 20	
Cc1ccc(NC(=O)c2cccc(Cl)c2)cc1-n1cc(-c2cnc3cccnn23)cn1	0.0222	> 80	5.08	> 20	
Cc1ccc(NC(=O)c2ccc(CN3CCN(C)CC3)cc2)cc1Nc1nccc(-c2cccnc2)n1 [IMATINIB]		27.5	7.38	12.4	
